Experimental data published in PMC7508162 (Frontiers in Pharmacology, 2020).

What was measured:
[1] = target: T1, NTPDase8 (Homo sapiens, UniProt Q5MY95); assay: Malachite green assay for NTPDase8; format: biochemical; set-up: expressed in transfected cells; host or cells: COS-7 cell membrane preparations; settings: for Ki: ATP 50 µM, recombinant COS-7 cell membrane preparation, read-out: Ki ± SEM; for % inhibition: test concentration not given
T1 sequence (Q5MY95 1-495): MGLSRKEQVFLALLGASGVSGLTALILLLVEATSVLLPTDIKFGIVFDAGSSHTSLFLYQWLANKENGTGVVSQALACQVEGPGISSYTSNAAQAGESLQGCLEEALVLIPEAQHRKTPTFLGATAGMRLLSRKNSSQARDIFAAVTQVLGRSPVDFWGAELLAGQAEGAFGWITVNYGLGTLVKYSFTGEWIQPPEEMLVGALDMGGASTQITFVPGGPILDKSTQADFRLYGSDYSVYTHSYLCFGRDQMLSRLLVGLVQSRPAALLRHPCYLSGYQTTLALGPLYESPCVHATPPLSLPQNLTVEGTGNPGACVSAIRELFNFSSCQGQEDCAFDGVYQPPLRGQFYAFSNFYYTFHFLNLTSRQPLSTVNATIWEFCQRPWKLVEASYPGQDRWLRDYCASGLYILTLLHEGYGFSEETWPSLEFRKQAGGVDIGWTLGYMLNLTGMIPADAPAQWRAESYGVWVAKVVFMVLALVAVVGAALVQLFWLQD
Protocol: The enzymatic activity assay was determined essentially as previously described ([Cogan et al., 1999]) with a few adaptations. The reaction buffer contained 10 mM HEPES, 2 mM CaCl2, 1 mM MgCl2, pH 7.4 in a final volume of 50 μl in transparent 96-well half area plates. For CD39 (NTPDase1), we made use of human umbilical cord membranes preparations which express high levels of the enzyme. For the other human NTPDase isoenzymes, we had to resort to recombinant expression. Human umbilical cord membrane preparations (250 ng) natively expressing high amounts of CD39, or the respective recombinant COS-7 cell membrane preparations expressing the appropriate NTPDase isoenzyme (ca. 100 ng of protein depending on enzyme activity) ([Sévigny et al., 1997]; [Lecka et al., 2013]) with or without inhibitor were preincubated at 37°C and gentle shaking (Eppendorf Thermomixer comfort at 500 rpm) for 5 min. The amount of enzyme preparation was adjusted to ensure 10–20% of substrate conversion. […] ([Kukulski et al., 2005]). After 15 min of incubation at 37°C with gentle shaking, the reaction was stopped by adding the detection reagents (20 µl malachite green solution, 0.6 mM, and 30 µl ammonium molybdate solution, 20 mM, in sulfuric acid, 1.5 M). The released (inorganic) phosphate was quantified after 20 min of gentle shaking at 25°C by measuring the absorption of the malachite green-phosphomolybdate complex at 600 nm using a BMG PheraStar FS plate reader (BMG Labtech GmbH, Ortenberg, Germany). The corrected absorption was calculated by subtracting the absorption of the negative control samples, which were incubated with denatured enzyme (90°C, 15 min), and the inhibition was calculated as follows:
% Inhibition=(B−T)/B*100%
where B is the average corrected absorption of the positive control without inhibitor and T the corrected absorption in the presence of test compound.
Full concentration-inhibition curves were determined with inhibitor concentrations ranging from 0.1 to 300 µM in the presence of 2% DMSO. Three independent experiments were performed (n = 3) and curves were calculated by the GraphPad Prism 8 software. The Ki value was calculated using the Cheng-Prusoff equation for competitive inhibitors: […]

[2] = target: T2, human NPP5 (Homo sapiens, UniProt Q9UJA9); assay: NPP5 assay with ϵ-NAD+ as substrate; format: biochemical; settings: for inhibition at 10 µM: 10 µM test compound; for Ki: 20 µM ϵ-NAD+, read-out: Ki ± SEM
T2 construct: the catalytic domains of the enzymes were amplified and sub-cloned into the expression vector pACGP67 A/B; 9xHis (C); made in house; host or cells: Sf9 insect cells (baculovirus, pACGP67 A/B)
T2 sequence (Q9UJA9 25-431 limits assumed): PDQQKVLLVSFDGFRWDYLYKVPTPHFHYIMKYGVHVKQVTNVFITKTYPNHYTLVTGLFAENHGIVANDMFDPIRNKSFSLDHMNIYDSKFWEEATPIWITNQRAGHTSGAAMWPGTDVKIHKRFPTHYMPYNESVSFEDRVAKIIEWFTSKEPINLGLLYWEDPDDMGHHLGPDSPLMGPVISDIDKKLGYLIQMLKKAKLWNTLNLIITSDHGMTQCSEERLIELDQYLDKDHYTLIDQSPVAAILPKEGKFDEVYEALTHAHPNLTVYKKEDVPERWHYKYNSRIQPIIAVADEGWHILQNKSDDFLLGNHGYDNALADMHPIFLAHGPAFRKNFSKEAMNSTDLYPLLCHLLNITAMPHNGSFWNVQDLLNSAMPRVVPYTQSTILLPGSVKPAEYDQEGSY
Text: The cDNAs of the human enzymes NPP1, NPP3, NPP5, CD38 and CD73 (Genbank accession no. NM_006258, NM_005021, NM_021572, NM_ 001775, and NM_002526, respectively) were obtained from Origene (Rockville, USA). Soluble enzymes were produced as previously reported with some modifications ([Lee et al., 2015]; [Junker et al., 2019]). Briefly, the catalytic domains of the enzymes were amplified and sub-cloned into the expression vector pACGP67 A/B modified with the addition of 9 x histidine tag (His-tag) at the C-terminus (except for NPP1). The plasmids were transfected in Sf9 insect cells using Cellfectin™ II Reagent (Thermo Fisher Scientific, MA, USA) and ProEasy™ baculovirus linearized DNA (Cat.#A10S, AB Vector, LLC). Protein expression was conducted for 48 h at 27°C. The signal peptide sequence of the expression vector shuttled the proteins into the supernatant. The supernatant medium was collected, and the enzymes were purified using HisPur™ Ni^2+-NTA spin columns according to the manufacturer’s protocol. The protein concentration was determined by the method previously described by [Lowry et al. (1951)].
The assays were performed in analogy to published procedures ([Blacher et al., 2015]). The enzymatic activity of human NPP3 and NPP5 (soluble forms expressed in insect cells and purified as previously described ([Lee et al., 2015]; [Lopez et al., 2020]) was measured using 1,N^6-etheno-nicotinamide adenine dinucleotide (ϵ-NAD^+) as a substrate, which is hydrolyzed to fluorescent 1,N^6-etheno-AMP (ϵ-AMP). The enzymatic reactions were performed in reaction buffer [10 mM N-cyclohexyl-2-aminoethanesulfonic acid (CHES), 2 mM CaCl2, and 1 mM MgCl2, pH 9.0 in H2O]. Purified NPP3 (90 ng) or NPP5 (400 ng), 20 µM of ϵ-NAD^+ and 10 µM of the test compound were incubated for 30 min at 37°C. The relative fluorescence at 270 nm excitation and 420 nm emission was detected by a fluorescence microplate reader (Flexstation, Medical Devices LLC. USA, Softmax Pro software to collect the data).

Structure (SMILES)	Ki [1] [µM]	% inhibition [1] [%]	inhibition at 10 µM [2] [%]	Ki [2] [µM]
CCN(CC)c1ncnc2c1ncn2[C@@H]1O[C@H](COP(=O)(O)OP(=O)(O)C(Br)(Br)P(=O)(O)O)[C@@H](O)[C@H]1O [ARL67156, (Dibromo((((((2R,3S,4R,5R)-5-(6-(diethylamino)-9H-purin-9-yl)-3,4-dihydroxytetrahydrofuran-2-yl)methoxy)-(hydroxy)-phosphoryl)oxy)(hydroxy)phosphoryl)methyl)-phosphonic Acid, reference compound]	> 50	2	-3	> 10
CCCCSc1nc2c(N)ncnc2n1[C@@H]1O[C@H](COP(=O)(O)OP(=O)(O)C(Br)(Br)P(=O)(O)O)[C@@H](O)[C@H]1O [Compound 31, (((((((2R,3S,4R,5R)-5-(6-Amino-8-(butylthio)-9H-purin-9-yl)-3,4-dihydroxytetrahydrofuran-2-yl)methoxy)(hydroxy)-phosphoryl)oxy)(hydroxy)phosphoryl)dibromomethyl)-phosphonic Acid]	> 50	2	2	> 10
CCCCNc1nc2c(NC)ncnc2n1[C@@H]1O[C@H](COP(=O)(O)OP(=O)(O)C(Br)(Br)P(=O)(O)O)[C@@H](O)[C@H]1O [Compound 33, (Dibromo((((((2R,3S,4R,5R)-5-(8-(butylamino)-6-(methylamino)-9H-purin-9-yl)-3,4-dihydroxy-tetrahydrofuran-2-yl)methoxy)(hydroxy)phosphoryl)oxy)-(hydroxy)phosphoryl)methyl)-phosphonic Acid]	> 50	-11	1	> 10
